According to patent US20230010299A1, “HETEROCYCLIC TRPML1 AGONISTS” (LIBRA THERAPEUTICS, INC., priority 2019, published 2023):

Key:
TRPML1 = molecular target: T1, TRPML1 (Homo sapiens, UniProt Q9GZU1); assay: TRPML1 automated patch-clamp (QPatch 16X); format: cell-based; conditions: HEK T-REx/GcaMP6f/TRPML1 cells, current with compound/current in vehicle, extracellular pH 4.6
T1 construct: expressed in transfected cells
Experimental: TRPML1—Automated Patch-Clamp
HEK T-REx/GcaMP6f/TRPML1 cells were cultured in DMEM High Glucose (Lonza BioWhittaker cat. BE12-604F/U1; 500 mL) supplemented with Fetal Bovine Serum TET-FREE (Euroclone cat. EC S0182L; 50 mL, Penicillin-Streptomycin (BioWhittaker, cat. DE17-602E; 5 mL of 100× Solution), G418 (Sigma, cat. G8168; 0.25 mg/ml) and Zeocyn (InvivoGen, cat. ant-zn-1; 50 μg/ml).
HEK T-REx/GcaMP6f/TRPML1 cells were seeded 48 or 72 hours before experiment, at a concentration of 8*10^6/4*10^6 cells onto a T225 flask. Just before the experiments, cells were washed twice with D-PBS w/o Ca^2+/Mg^2+ (Euroclone cat. ECB4004L) and detached from the flask with trypsin-EDTA (Sigma cat. T4174; diluted 1/10). Cells were then re-suspended in the suspension solution: 25 mL EX-CELL ACF CHO medium(Sigma cat. C5467); 0.625 mL HEPES (Sigma cat. H0887); 0.25 mL of 100× Penicillin/Streptomycin (Euroclone cat. ECB3001D), 0.1 mL of Soybean Trypsin Inhibitor 10 mg/mL (Sigma cat. T6522) and placed on the QPatch 16X.
Dilution from stock were prepared just before the experiments in the extracellular solution (0.25% final DMSO concentration). DMSO solution was obtained from AppliChem (cat. A3672)
Patch Clamp Solutions: • Intracellular solution (mM): 120 CsMeSO3, 4 NaCl, 2 MgCl2, 10 EGTA, 20 HEPES, 2 Mg-ATP (pH 7.2 with CsOH). • Extracellular solution (mM): 140 NaGluconate, 5 KCl, 1 MgCl2, 2 CaCl2), 10 Glucose, 10 MES (pH 4.6 with HCl).
Patch Clamp Analysis—QPatch 16X
For the voltage clamp experiments on TRPML1, data were sampled at 5 KHz. After establishment of the seal and the passage in the whole cell configuration, the cells were held at −20 mV and the TRPML1 current was evoked using the voltage protocol illustrated in FIG. 2, applied every 5 sec. (50 ms at −20 mV; 20 ms at −120 mV, 1000 ms ramp from −120 to […]; 20 ms at +40 mV, and back to −20 mV); in the absence (vehicle period, i.e. 0.25% DMSO) and in the presence of increasing concentrations (3) of the compound under investigation.
Agonists: For data collection, the Sophion proprietary software was used and the analysis was performed off-line using Excel and GraphPad Prism (V 8.00). Results are reported in Table 6, expressed as TRPML1 current fold increase evoked by the compound under investigation (i.e. current in the presence of the compound/current in vehicle).

[1] = system: autophagy reporter Rosella (LC3 tag) in HeK293 cell line; assay: Autophagy assay (reporter Rosella, imaging); format: cell-based; conditions: Homo sapiens; HeK293 cells stably expressing reporter Rosella; 18 hours incubation; reference Torin-1 1 μM as max signal; read-out: Secondary Assays Autophagy qAC50
Experimental: Buffers and Reagents • Tyrode's buffer with 2 mM Ca^2+ in-house solution (130 mM NaCl, 5 mM KCl, 2 mM CaCl2), 1 mM MgCl2, 5 mM NaHCO3, 20 mM HEPES in water at pH 7.4; sterile filtered) • DMSO (Sigma) • Bis-benzimide H 33342 trihydrochloride (Hoechst 33342; Sigma-Aldrich) • Reference molecule (agonist): Torin-1, (#4247, Tocris) stock 1.2 mM in DMSO, stored at −20° C.
Reporter of Autophagy and Cell Line
Reporter Rosella: a fluorescent-based chimera constitutes by two fluorescent proteins, Green and Red variants, acting as a bimodal indicator of pH. […] The reporter is fused to sequence for autophagosome localization (LC3 tag).
The reporter Rosella have been stably expressed in HeK293 cell line and used as read-out.
Experiments have been performed in 384 MTP poly-lysine coated well format. Cells have been seeded in 384-w at a density of 6000 cells/well in 25 μl/well complete growth medium without antibiotics. Twenty-four hours later, cells have been treated with compounds and incubated for further 18 hours. Then the cells have been imaged and assayed for the response to various compounds using the reporter for autophagy expressed in the cells as readout.
The experiments were performed in a 384-well format according to the following procedure: • 24 h after seeding, cells were incubated with compounds at the desired concentration, and with the reference molecule (agonist) Torin-1 at a top concentration of 1 μM (max signal), for 18 hours at 37° C. and 5% CO2. The final percentage of DMSO was 0.3% in all the conditions. • Then the culture medium was carefully removed to avoid cells detachment and to discard red phenol into the medium and that can interfere with the measurements. • Staining of the nuclei was obtained by incubating the cells with 8 μM/well of Hoechst 3342 in standard Tyrode's buffer for 20 min at RT • Then the cells were carefully washed two times with standard Tyrode's buffer • Finally, the samples were acquired by recording three fluorescence emission channels (green, red and blue) at 20× magnification and with at least 3-4 fields of view per well in an Operetta CLS microscope (PerkinElmer). • Image analysis was performed by using Harmony software (PerkinElmer). The image analysis involved the following steps: flat-field illumination correction, nuclei segmentation, cell segmentations and identification of vesicles/granules within the cytosol compartments and representing the autophagy vesicles. Measurements of signal intensity ratio (Green to Red) and number of autophagy vesicles per cells were used to obtain information on the effects of compounds on the autophagy flux. • Data from image analysis measurements were finally loaded and analyzed for normalization and fitting procedures in Genedata Screener© software.

T1 sequence (Q9GZU1 whole entry): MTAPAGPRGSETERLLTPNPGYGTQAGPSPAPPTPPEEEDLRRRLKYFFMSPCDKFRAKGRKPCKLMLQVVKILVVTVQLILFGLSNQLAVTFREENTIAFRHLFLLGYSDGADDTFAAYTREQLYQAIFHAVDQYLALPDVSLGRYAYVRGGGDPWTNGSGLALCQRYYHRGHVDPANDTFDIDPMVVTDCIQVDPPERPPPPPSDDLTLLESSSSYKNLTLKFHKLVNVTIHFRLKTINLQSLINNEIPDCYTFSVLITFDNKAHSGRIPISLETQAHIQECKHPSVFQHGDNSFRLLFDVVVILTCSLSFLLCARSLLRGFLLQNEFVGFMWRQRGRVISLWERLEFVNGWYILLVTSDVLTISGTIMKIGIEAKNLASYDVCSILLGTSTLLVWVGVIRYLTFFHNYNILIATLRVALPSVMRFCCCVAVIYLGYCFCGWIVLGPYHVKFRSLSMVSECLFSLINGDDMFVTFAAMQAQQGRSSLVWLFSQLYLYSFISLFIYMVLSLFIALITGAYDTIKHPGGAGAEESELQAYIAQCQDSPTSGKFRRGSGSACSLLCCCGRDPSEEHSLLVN

Row | Qpatch Assay TRPML1 agonism Current fold increase Mean ± SEM (n) (TRPML1; 0.3 μM compound) | Qpatch Assay TRPML1 agonism Current fold increase Mean ± SEM (n) (TRPML1; 3.0 μM compound) | Qpatch Assay TRPML1 agonism Current fold increase Mean ± SEM (n) (TRPML1; 30 μM compound) | Compound | EC50 [1] [nM]
1 | 310 ± 147 (4) | 435 ± 172 (4) | 603 ± 155 (3) | CN(C)S(=O)(=O)c1ccc(S(=O)(=O)Nc2ccccc2N2CCC(Oc3ccccn3)CC2)cc1 [Example 75, N1,N1-dimethyl-N4-{2-[4-(pyridin-2-yloxy)piperidin-1-yl]phenyl}benzene-1,4-disulfonamide] | 170
2 | 74.4 ± 13.8 (3) | 167 ± 10.7 (3) | 168 ± 9.8 (3) | CN(C)S(=O)(=O)c1ccc(S(=O)(=O)Nc2ccccc2N2CCC(Oc3cnccn3)CC2)cc1 [Example 77, N1,N1-dimethyl-N4-{2-[4-(pyrazin-2-yloxy)piperidin-1-yl]phenyl} benzene-1,4-disulfonamide] | 250

The next lines start with the compound.

Row | Compound | Qpatch Assay TRPML1 agonism Current fold increase Mean ± SEM (n) (TRPML1; 0.3 μM compound) | Qpatch Assay TRPML1 agonism Current fold increase Mean ± SEM (n) (TRPML1; 3.0 μM compound) | Qpatch Assay TRPML1 agonism Current fold increase Mean ± SEM (n) (TRPML1; 30 μM compound) | EC50 [1] [nM]
3 | CN(C)S(=O)(=O)c1ccc(S(=O)(=O)NC2CCCCC2N2CCC(Oc3ccccc3)CC2)cc1 (racemic) [Example 57, N1,N1-dimethyl-N4-[2-(4-phenoxypiperidin-1-yl)cyclohexyl]benzene-1,4-disulfonamide] | 0.39 ± 0.14 (2) | 0.86 ± 0.68 (2) | 4.3 ± 2.2 (2) | 1800
4 | CN(C)S(=O)(=O)c1ccc(S(=O)(=O)Nc2ccccc2N2CCCCC2)cc1 [Example 6, N1,N1-dimethyl-N4-[2-(piperidin-1-yl)phenyl]benzene-1,4-disulfonamide] | 1.0 ± 0.77 (3) | 32.7 ± 8.9 (3) | – | 4400
5 | CN(C)S(=O)(=O)c1ccc(S(=O)(=O)Nc2ccccc2N2CCN(C(=O)OC(C)(C)C)CC2)cc1 [Example 13, tert-butyl 4-{2-[4-(dimethylsulfamoyl)benzenesulfonamido]phenyl}piperazine-1-carboxylate] | 13.5 ± 4.8 (4) | 208 ± 15.7 (4) | 244 ± 27.6 (4) | 520
6 | CN(C)S(=O)(=O)c1ccc(S(=O)(=O)Nc2ccccc2N2CCC(C(=O)OC(C)(C)C)CC2)cc1 [Example 76, f-butyl 1-{2-[4-(dimethylsulfamoyl)benzenesulfonamido]phenyl}piperidine-4-carboxylate] | 35.6 ± 26.7 (3) | 38.5 ± 24.8 (2) | 52.7 ± 36.3 (2) | 59
